From patent US12622933B2, “Method for improving eye condition” (LAIMU CORPORATION, priority 2022, dated 2026)

Tested on: dry eye patient
Assay: Peroral administration to a dry eye patient
Assay type: in vivo, human
Details: perorally administered to a dry eye patient; no method or data given

hyaluronic acid
eye condition improving effect: any significant eye condition improving can not be attained
